# Experimental data: PubChem BioAssay (NCI)
# Several values for one entry are separate records, joined by “and”; a condition that tells them apart may be missing. Equal values may be shown once.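 Cultured in 96-well plates, cells were exposed to test compound for 48 hours across five concentrations. Abbreviation: GI50, concentration required for 50% inhibition of growth. Definition used: TGI = concentration required for complete inhibition of growth.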
# How the values were obtained:
# Assay in all cases: NCI tumour cell line growth inhibition, 48 h
# 786-0 renal = test system: 786-0 renal
# CCRF-CEM leukemia = test system: CCRF-CEM leukemia
# DLD-1 colon = test system: DLD-1 colon
# DMS 273 small cell lung = test system: DMS 273 small cell lung
# HCC-2998 colon = test system: HCC-2998 colon
# HCT-116 colon = test system: HCT-116 colon
# HL-60(TB) leukemia = test system: HL-60(TB) leukemia
# HOP-62 NSCLC = test system: HOP-62 NSCLC
# K-562 leukemia = test system: K-562 leukemia
# KM20L2 colon = test system: KM20L2 colon
# LOX IMVI melanoma = test system: LOX IMVI melanoma
# LXFL 529 NSCLC = test system: LXFL 529 NSCLC
# M14 melanoma = test system: M14 melanoma
# MOLT-4 leukemia = test system: MOLT-4 leukemia
# NCI-H226 lung = test system: NCI-H226 lung
# NCI-H23 lung = test system: NCI-H23 lung
# NCI-H460 lung = test system: NCI-H460 lung
# NCI-H522 lung = test system: NCI-H522 lung
# OVCAR-4 ovarian = test system: OVCAR-4 ovarian
# RPMI-8226 leukemia = test system: RPMI-8226 leukemia
# RXF 393 renal = test system: RXF 393 renal
# SF-539 CNS = test system: SF-539 CNS
# SK-MEL-28 melanoma = test system: SK-MEL-28 melanoma
# SNB-19 CNS = test system: SNB-19 CNS
# SNB-75 CNS = test system: SNB-75 CNS
# SNB-78 CNS = test system: SNB-78 CNS
# U251 CNS = test system: U251 CNS
# A498 renal = test system: A498 renal
# A549 NSCLC = test system: A549 NSCLC
# ACHN renal = test system: ACHN renal
# CAKI-1 renal = test system: CAKI-1 renal
# COLO 205 colon = test system: COLO 205 colon
# DMS 114 small cell lung = test system: DMS 114 small cell lung
# DU-145 prostate = test system: DU-145 prostate
# EKVX NSCLC = test system: EKVX NSCLC
# HCT-15 colon = test system: HCT-15 colon
# HOP-92 NSCLC = test system: HOP-92 NSCLC
# HS 578T breast = test system: HS 578T breast
# HT29 colon = test system: HT29 colon
# IGROV1 ovarian = test system: IGROV1 ovarian
# KM12 colon = test system: KM12 colon
# MALME-3M melanoma = test system: MALME-3M melanoma
# MDA-MB-231 breast = test system: MDA-MB-231 breast
# MDA-MB-435 = test system: MDA-MB-435
# MDA-N = test system: MDA-N
# NCI/ADR-RES ovarian = test system: NCI/ADR-RES ovarian
# OVCAR-3 ovarian = test system: OVCAR-3 ovarian
# OVCAR-5 ovarian = test system: OVCAR-5 ovarian
# OVCAR-8 ovarian = test system: OVCAR-8 ovarian
# PC-3 prostate = test system: PC-3 prostate
# SF-268 CNS = test system: SF-268 CNS
# SF-295 CNS = test system: SF-295 CNS
# SK-MEL-2 melanoma = test system: SK-MEL-2 melanoma
# SK-MEL-5 melanoma = test system: SK-MEL-5 melanoma
# SK-OV-3 ovarian = test system: SK-OV-3 ovarian
# SN12C renal = test system: SN12C renal
# SR leukemia = test system: SR leukemia
# SW-620 colon = test system: SW-620 colon
# T-47D breast = test system: T-47D breast
# TK-10 renal = test system: TK-10 renal
# UACC-257 melanoma = test system: UACC-257 melanoma
# UACC-62 melanoma = test system: UACC-62 melanoma
# UO-31 renal = test system: UO-31 renal
# M19-MEL melanoma = test system: M19-MEL melanoma
compound,measurement,setting,value
Cc1cnc(-c2ccccc2)o1,TGI,786-0 renal,> 100000 nM
same,TGI,CCRF-CEM leukemia,> 100000 nM
same,TGI,DLD-1 colon,> 100000 nM
same,TGI,DMS 273 small cell lung,> 100000 nM
same,TGI,HCC-2998 colon,> 100000 nM
same,TGI,HCT-116 colon,> 100000 nM
same,TGI,HL-60(TB) leukemia,> 100000 nM
same,TGI,HOP-62 NSCLC,> 100000 nM
same,TGI,K-562 leukemia,> 100000 nM
same,TGI,KM20L2 colon,> 100000 nM
same,TGI,LOX IMVI melanoma,> 100000 nM
same,TGI,LXFL 529 NSCLC,> 100000 nM
same,TGI,M14 melanoma,> 100000 nM
same,TGI,MOLT-4 leukemia,> 100000 nM
same,TGI,NCI-H226 lung,> 100000 nM
same,TGI,NCI-H23 lung,> 100000 nM
same,TGI,NCI-H460 lung,> 100000 nM
same,TGI,NCI-H522 lung,> 100000 nM
same,TGI,OVCAR-4 ovarian,> 100000 nM
same,TGI,RPMI-8226 leukemia,> 100000 nM
same,TGI,RXF 393 renal,> 100000 nM
same,TGI,SF-539 CNS,> 100000 nM
same,TGI,SK-MEL-28 melanoma,> 100000 nM
same,TGI,SNB-19 CNS,> 100000 nM
same,TGI,SNB-75 CNS,> 100000 nM
same,TGI,SNB-78 CNS,> 100000 nM
same,TGI,U251 CNS,> 100000 nM
CC(=O)NC1C(OCc2ccccc2)OC(CO)C(O)C1OC(C)C(=O)NC(C)C(=O)N[C@@H](CCC(=O)OCCCNC1c2ccccc2Nc2cccc([N+](=O)[O-])c21)C(N)=O (stereo partly drawn),GI50,786-0 renal,6.74 nM
same,TGI,786-0 renal,30.6 nM
same,TGI,A498 renal,20 nM
same,GI50,A549 NSCLC,30.6 nM
same,TGI,ACHN renal,46.5 nM and < 40.7 nM
same,GI50,CAKI-1 renal,28 nM
same,TGI,CAKI-1 renal,102 nM and 16.3 nM
same,GI50,CCRF-CEM leukemia,44.4 nM and 24.9 nM
same,TGI,CCRF-CEM leukemia,422 nM and 1200 nM
same,GI50,COLO 205 colon,13.4 nM
same,TGI,COLO 205 colon,27.4 nM
same,TGI,DMS 114 small cell lung,21.5 nM
same,TGI,DMS 273 small cell lung,< 10.6 nM
same,TGI,DU-145 prostate,79.9 nM
same,TGI,EKVX NSCLC,33.4 nM and 35.6 nM
same,GI50,HCC-2998 colon,16.4 nM
same,TGI,HCC-2998 colon,32.2 nM
same,GI50,HCT-116 colon,3.01 nM
same,TGI,HCT-116 colon,24.2 nM and < 11.6 nM
same,TGI,HCT-15 colon,24.5 nM
same,GI50,HL-60(TB) leukemia,21.1 nM
same,TGI,HL-60(TB) leukemia,125 nM and 39.8 nM
same,GI50,HOP-62 NSCLC,23.4 nM
same,GI50,HOP-92 NSCLC,15.9 nM
same,TGI,HOP-92 NSCLC,43.4 nM and 27 nM
same,TGI,HS 578T breast,72.5 nM
same,GI50,HT29 colon,5.83 nM
same,TGI,HT29 colon,29.5 nM and 10.2 nM
same,GI50,IGROV1 ovarian,51.4 nM
same,TGI,IGROV1 ovarian,267 nM and 86.1 nM
same,TGI,K-562 leukemia,14.1 nM
same,GI50,KM12 colon,21.1 nM
same,TGI,KM12 colon,51.6 nM and < 10.7 nM
same,GI50,LOX IMVI melanoma,181 nM
same,TGI,LOX IMVI melanoma,441 nM and 103 nM
same,TGI,LXFL 529 NSCLC,< 23.2 nM
same,GI50,M14 melanoma,20.1 nM
same,TGI,M14 melanoma,48.5 nM
same,GI50,MALME-3M melanoma,15.7 nM
same,TGI,MALME-3M melanoma,32.4 nM
same,TGI,MDA-MB-231 breast,74 nM
same,TGI,MDA-MB-435,30.9 nM
same,TGI,MDA-N,31.7 nM
same,GI50,MOLT-4 leukemia,40.6 nM
same,TGI,MOLT-4 leukemia,425 nM and 48.6 nM
same,GI50,NCI-H226 lung,14.7 nM
same,TGI,NCI-H226 lung,45.5 nM and < 15.1 nM
same,TGI,NCI-H23 lung,29.5 nM
same,GI50,NCI-H460 lung,1.38 nM
same,TGI,NCI-H460 lung,14 nM and 13 nM
same,GI50,NCI-H522 lung,13.8 nM
same,TGI,NCI-H522 lung,40.5 nM and < 15.1 nM
same,TGI,NCI/ADR-RES ovarian,54.5 nM
same,GI50,OVCAR-3 ovarian,27.2 nM
same,TGI,OVCAR-3 ovarian,94.5 nM and 10.2 nM
same,GI50,OVCAR-4 ovarian,31.4 nM
same,TGI,OVCAR-4 ovarian,140 nM and < 18 nM
same,GI50,OVCAR-5 ovarian,10.5 nM
same,TGI,OVCAR-5 ovarian,73.7 nM and 48.8 nM
same,GI50,OVCAR-8 ovarian,20 nM
same,TGI,OVCAR-8 ovarian,76.5 nM and 34.7 nM
same,TGI,PC-3 prostate,141 nM
same,TGI,RPMI-8226 leukemia,< 17.4 nM
same,TGI,RXF 393 renal,32 nM
same,GI50,SF-268 CNS,19.5 nM
same,TGI,SF-268 CNS,63.9 nM and 51.2 nM
same,GI50,SF-295 CNS,67.7 nM
same,TGI,SF-295 CNS,433 nM and 59.6 nM
same,GI50,SF-539 CNS,29.7 nM
same,TGI,SF-539 CNS,110 nM and 16.7 nM
same,GI50,SK-MEL-2 melanoma,22.1 nM
same,TGI,SK-MEL-2 melanoma,53.2 nM
same,GI50,SK-MEL-28 melanoma,27 nM
same,TGI,SK-MEL-28 melanoma,64.3 nM and 15.5 nM
same,GI50,SK-MEL-5 melanoma,20 nM
same,TGI,SK-MEL-5 melanoma,53.8 nM and 15.2 nM
same,GI50,SK-OV-3 ovarian,147 nM
same,TGI,SK-OV-3 ovarian,644 nM and 96.5 nM
same,GI50,SN12C renal,17.8 nM
same,TGI,SN12C renal,97.5 nM and < 12.2 nM
same,GI50,SNB-19 CNS,30.3 nM
same,TGI,SNB-19 CNS,211 nM and 58.4 nM
same,GI50,SNB-75 CNS,28.4 nM
same,TGI,SNB-75 CNS,145 nM and 48 nM
same,TGI,SNB-78 CNS,40.7 nM
same,GI50,SR leukemia,0.3 nM
same,TGI,SR leukemia,9.48 nM and 22.1 nM
same,GI50,SW-620 colon,1.35 nM
same,TGI,SW-620 colon,17 nM and 55.7 nM
same,TGI,T-47D breast,669 nM
same,TGI,TK-10 renal,30.1 nM
same,GI50,U251 CNS,13.8 nM
same,TGI,U251 CNS,49.7 nM and 15.9 nM
same,TGI,UACC-257 melanoma,15.9 nM
same,TGI,UACC-62 melanoma,< 11.2 nM
same,TGI,UO-31 renal,38.4 nM
O=C1C=C(Nc2ccc(Br)cc2)c2ccccc2C1=O,TGI,786-0 renal,28300 nM
same,TGI,A498 renal,31000 nM
same,TGI,A549 NSCLC,32800 nM
same,TGI,ACHN renal,16200 nM
same,TGI,CCRF-CEM leukemia,32300 nM
same,TGI,COLO 205 colon,31000 nM
same,TGI,DMS 114 small cell lung,18000 nM
same,TGI,DMS 273 small cell lung,25700 nM
same,TGI,EKVX NSCLC,32500 nM
same,TGI,HCC-2998 colon,28500 nM
same,TGI,HCT-116 colon,26500 nM
same,TGI,HCT-15 colon,18900 nM
same,TGI,HL-60(TB) leukemia,22400 nM
same,TGI,HOP-62 NSCLC,30700 nM
same,TGI,HT29 colon,34000 nM
same,TGI,IGROV1 ovarian,33200 nM
same,TGI,K-562 leukemia,34000 nM
same,TGI,KM12 colon,29600 nM
same,TGI,KM20L2 colon,39300 nM
same,TGI,LXFL 529 NSCLC,25400 nM
same,TGI,M14 melanoma,28800 nM
same,TGI,M19-MEL melanoma,3290 nM
same,TGI,MALME-3M melanoma,28700 nM
same,TGI,MOLT-4 leukemia,30500 nM
same,TGI,NCI-H226 lung,38200 nM
same,TGI,NCI-H23 lung,15300 nM
same,TGI,NCI-H460 lung,23800 nM
same,TGI,NCI-H522 lung,25500 nM
same,TGI,OVCAR-3 ovarian,19700 nM
same,TGI,OVCAR-4 ovarian,6130 nM
same,TGI,OVCAR-5 ovarian,35300 nM
same,TGI,OVCAR-8 ovarian,29300 nM
same,TGI,RPMI-8226 leukemia,24900 nM
same,TGI,RXF 393 renal,30600 nM
same,TGI,SF-268 CNS,27600 nM
same,TGI,SF-295 CNS,29800 nM
same,TGI,SF-539 CNS,30300 nM
same,TGI,SK-MEL-2 melanoma,30100 nM
same,TGI,SK-MEL-28 melanoma,31300 nM
same,TGI,SK-OV-3 ovarian,31000 nM
same,TGI,SN12C renal,29600 nM
same,TGI,SNB-19 CNS,29200 nM
same,TGI,SNB-75 CNS,23300 nM
same,TGI,SR leukemia,16500 nM
same,TGI,SW-620 colon,27200 nM
same,TGI,TK-10 renal,33800 nM
same,TGI,U251 CNS,16000 nM
same,TGI,UACC-257 melanoma,26500 nM
same,TGI,UACC-62 melanoma,15300 nM
same,TGI,UO-31 renal,29600 nM
